Format in all cases: in vivo
One assay has as its system Phytophthora infestans. The assay can be described thus: whole plant or invertebrate. Conditions: Phytophthora infestans, in Solanum lycopersicum, 72 h, read-out: % efficacy.
Assay [1] concerns Erysiphe graminis f.sp. hordei. The assay can be described thus: Erysiphe test (barley)/curative. The note with it: curative, 7 days after inoculation. Here is the method: (§1) Solvent: 25 parts by weight of N,N-dimethylacetamide
(§2) Emulsifier: 0.6 part by weight of alkylaryl polyglycol ether
(§3) To produce a suitable preparation of active compound, 1 part by weight of active compound or active compound combination is mixed with the stated amounts of solvent and emulsifier, and the concentrate is diluted with water to the desired concentration.
To test for curative activity, young plants are dusted with spores of Erysiphe graminis f.sp. hordei. 48 hours after the inoculation, the plants are sprayed with the preparation of active compound at the stated application rate.
(§4) The plants are placed in a greenhouse at a temperature of about 20° C. and a relative atmospheric humidity of about 80%, in order to promote the development of mildew pustules.
(§5) Evaluation is carried out 7 days after the inoculation. 0% means an efficacy which corresponds to that of the control, whereas an efficacy of 100% means that no infection is observed.

Assay [2] concerns Leptosphaeria nodorum. The assay can be described thus: Leptosphaeria nodorum test (wheat)/curative. The note with it: curative, 10 days after inoculation. The protocol: as §1, §2, §3
To test for curative activity, young plants are sprayed with a conidia suspension of Leptosphaeria nodorum. The plants remain in an incubation cabin at 20° C. and 100% relative atmospheric humidity for 48 hours and are then sprayed with the preparation of active compound at the stated application rate.
The plants are placed in a greenhouse at a temperature of about 15° C. and a relative atmospheric humidity of about 80%.
(§6) Evaluation is carried out 10 days after the inoculation. 0% means an efficacy which corresponds to that of the control, whereas an efficacy of 100% means that no infection is observed.

Assay [3] concerns Puccinia recondita. The assay can be described thus: Puccinia test (wheat)/protective. The note with it: Puccinia recondita, 240 h, application rate 6.25 g/ha, protective, 10 days after inoculation, read-out: Efficacy in %. Here is the method: as §1, §2, §3
To test for protective activity, young plants are sprayed with the preparation of active compound at the stated application rate. After the spray coating has dried on, the plants are sprayed with a conidia suspension of Puccinia recondita. The plants remain in an incubation cabin at 20° C. and 100% relative atmospheric humidity for 48 hours.
The plants are then placed in a greenhouse at a temperature of about 20° C. and a relative atmospheric humidity of 80%, in order to promote the development of rust pustules.
as §6

Another assay relates to Fusarium nivale. The assay can be described thus: Fusarium nivale test (triticale)/seed treatment. The note with it: dry seed dressing, about 3 weeks after sowing.
Another assay concerns Rhizoctonia solani. The assay can be described thus: Rhizoctonia solani test (cotton)/seed treatment. The note with it: application rate 75 mg/kg of seed, dry seed dressing, after 8 days. Here is the method:
The active compounds are applied as dry seed dressing. This is prepared by extending the respective active compound with ground mineral to give a finely pulverulent mixture which ensures uniform distribution on the seed surface.
To dress the seed, the infected seed together with the seed dressing is shaken for 3 minutes in a sealed glass flask.
2×50 corns of seed are sown at a depth of 2 cm into standard soil which is infected with Rhizoctonia solani, and the seeds are cultivated in a greenhouse at a temperature of about 22° C. in seed trays which receive a light regimen of 15 hours per day.
Evaluation is carried out after 8 days. 0% means an efficacy which corresponds to that of the untreated control, while an efficacy of 100% means that no disease is observed.

The subject of another assay is Pyrenophora teres. The assay can be described thus: Pyrenophora teres test (barley)/curative. Conditions: application rate 6.25 g/ha, curative, 7 days after inoculation. The protocol: as §1, §2, §3
To test for curative activity, young plants are sprayed with a conidia suspension of Pyrenophora teres. The plants remain in an incubation cabin at 20° C. and 100% relative atmospheric humidity for 48 hours. The plants are subsequently sprayed with the preparation of active compound at the stated application rate.
The plants are placed in a greenhouse at a temperature of about 20° C. and a relative atmospheric humidity of about 80%.
as §5

For assay [4], the system named is Leptosphaeria nodorum. The assay can be described thus: Leptosphaeria nodorum test (wheat)/protective. The note with it: Parastagonospora nodorum, 240 h, application rate 6.25 g/ha, protective, 10 days after inoculation, read-out: Efficacy in %. The protocol:
as §1, §2, §3
To test for protective activity, young plants are sprayed with the preparation of active compound at the stated application rate. After the spray coating has dried on, the plants are sprayed with a spore suspension of Leptosphaeria nodorum. The plants remain in an incubation cabin at 20EC and 100% relative atmospheric humidity for 48 hours.
The plants are placed in a greenhouse at a temperature of about 15° C. and a relative atmospheric humidity of 80%.
as §6

The next assay deals with Sphaerotheca fuliginea. The assay can be described thus: Sphaerotheca test (cucumber)/protective. The note with it: Podosphaera fuliginea, 240 h, application rate 2.5 g/ha, protective, 10 days after inoculation, read-out: % efficacy. Here is the method:
To test for protective activity, young plants are sprayed with the commercial active compound preparation at the stated application rate. After the spray coating has dried on, the plants are inoculated with an aqueous spore suspension of Sphaerotheca fuliginea. The plants then remain in a greenhouse at about 23° C. and about 70% relative atmospheric humidity.
Evaluation is carried out 10 days after the inoculation. 0% means an efficacy corresponding to that of the control, and an efficacy of 100% means that no infection is observed.

Assay [5] has as its system Puccinia recondita. The assay can be described thus: Puccinia test (wheat)/curative. The note with it: application rate 6.25 g/ha, curative, 10 days after inoculation. The protocol:
as §1, §2, §3
To test for curative activity, young plants are sprayed with a conidia suspension of Puccinia recondita. The plants remain in an incubation cabin at 20° C. and 100% relative atmospheric humidity for 48 hours. The plants are subsequently sprayed with the preparation of active compound at the stated application rate.
The plants are placed in a greenhouse at a temperature of about 20° C. and a relative atmospheric humidity of about 80%, in order to promote the development of rust pustules.
as §6

The subject of assay [6] is Erysiphe graminis fsp. tritici. The assay can be described thus: Erysiphe test (wheat)/protective. The note with it: protective, 7 days after inoculation. Here is the method: as §1, §2, §3
To test for protective activity, young plants are sprayed with the preparation of active compound at the stated application rate.
After the spray coating has dried on, the plants are dusted with spores of Erysiphe graminis fsp. tritici.
as §4, §5

Assay [7] relates to Erysiphe graminis f.sp. tritici. The assay can be described thus: Erysiphe test (wheat)/curative. Conditions: curative, 7 days after inoculation. The protocol: as §1, §2, §3
To test for curative activity, young plants are dusted with spores of Erysiphe graminis f.sp. tritici. 48 hours after the inoculation, the plants are sprayed with the preparation of active compound at the stated application rate.
as §4, §5

The next assay relates to Botrytis cinerea. The assay can be described thus: Botrytis test (beans)/protective. Conditions: 48 h, application rate 50 g/ha, protective, two days after inoculation, read-out: % efficacy. Here is the method:
To test for protective activity, young plants are sprayed with the commercial active compound preparation at the stated application rate. After the spray coating has dried on, 2 small pieces of agar covered with Botrytis cinerea are placed on each leaf. The inoculated plants are placed in a darkened chamber at about 20° C. and 100% relative atmospheric humidity.
Two days after the inoculation, the size of the infected spots on the leaves is evaluated. 0% means an efficacy corresponding to that of the control, and an efficacy of 100% means that no infection is observed.

Setting [8] is: application rate 25 mg/kg of seed.

Procedure for Fusarium nivale: About 3 weeks after sowing, the plants are evaluated for symptoms of snow mould.

Turning to `CC(C)(C)C(O)C(Oc1ccc(Cl)cc1)n1cncn1` (stereo not drawn) [(F), triadimenol], in the assay on Phytophthora infestans, the Emax at 5 g/ha stood at 0%. For the same compound, the Efficacy in % in [1] (application rate 6.25 g/ha) amounted to 67%; in the assay with Leptosphaeria nodorum [2] (application rate 6.25 g/ha), 25%; in the assay on Fusarium nivale (setting [8]), 52%; in the assay on Rhizoctonia solani, 48%; in the assay with Pyrenophora teres, 0%. The pest or weed control at 6.25 g/ha in the assay with Puccinia recondita [3] came to 13%; with Leptosphaeria nodorum [4], 0%.
With `CON=C(C1=NOCCO1)c1ccccc1Oc1ncnc(Oc2ccccc2Cl)c1F` [(I)], the Emax at 2.5 g/ha in the assay on Sphaerotheca fuliginea was 22%. Besides, the Emax at 0.5 g/ha with Phytophthora infestans worked out at 9%. The Emax at 1 g/ha in the assay on Phytophthora infestans worked out at 20%. Also, the Emax at 5 g/ha in the assay with Phytophthora infestans is 45%. Also, the Efficacy in % in assay [1] (application rate 6.25 g/ha) is on record as 0%; in [1] (application rate 12.5 g/ha), 33%; in assay [1] (application rate 25 g/ha), 75%; in the assay on Leptosphaeria nodorum [2] (application rate 6.25 g/ha), 62%; with Leptosphaeria nodorum [2] (application rate 12.5 g/ha), 62%; in the assay with Puccinia recondita [5] it was 67%. The Efficacy in % was found to be 89% in the assay on Fusarium nivale (setting [8]); 93% in the assay on Fusarium nivale (application rate 75 mg/kg of seed); 0% in assay [6] (application rate 6.25 g/ha); 29% in [6] (application rate 12.5 g/ha); 79% in assay [6] (application rate 25 g/ha); 16% in the assay with Rhizoctonia solani. The Efficacy in % in assay [7] (application rate 6.25 g/ha) was determined as 0%; in [7] (application rate 25 g/ha) it was 33%; with Pyrenophora teres, 0%. In addition, the pest or weed control at 6.25 g/ha was found to be 81% in the assay on Puccinia recondita [3] and 25% with Leptosphaeria nodorum [4]. The Emax at 50 g/ha in the assay on Botrytis cinerea was determined as 15%.
